Reference: patent publication US11053204B2, “Pyrimidinyloxy benzene derivatives as herbicides” (FMC Corporation, priority 2015, dated 2021)

Legend:
Assay type in all cases: in vivo
[1] = system: blackgrass (Alopecurus myosuroides); assay: Test C preemergence, plant response rating; details: Alopecurus myosuroides, pre-emergence, Preemergence
How it was run: (§1)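 Both timings shared one formulation, a non-phytotoxic solvent mixture with surfactant, and a greenhouse period of 13 to 15 d. Preemergence used seeded loam/sand or silt loam soil, postemergence used 2 to 18 cm plants; visual ratings ran from 0 (no effect) to 100 (complete control).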

corn (Zea mays) = assay: Test C preemergence, plant response rating; details: Zea mays, pre-emergence, Preemergence
How it was run: as §1

[2] = system: crabgrass, large (large crabgrass, Digitaria sanguinalis); assay: Test C preemergence, plant response rating; details: Digitaria sanguinalis, pre-emergence, Preemergence
How it was run: as §1

[3] = system: foxtail, giant (giant foxtail, Setaria faberii); assay: Test C preemergence, plant response rating; details: Setaria faberi, pre-emergence, Preemergence
How it was run: as §1

[4] = system: lambsquarters (Chenopodium album); assay: Test C preemergence, plant response rating; details: Chenopodium album, pre-emergence, Preemergence
How it was run: as §1

[5] = system: morningglory (Ipomoea coccinea); assay: Test C preemergence, plant response rating; details: Ipomoea, pre-emergence, Preemergence
How it was run: as §1

[6] = system: nutsedge, yellow (yellow nutsedge, Cyperus esculentus); assay: Test C preemergence, plant response rating; details: Cyperus, pre-emergence, Preemergence
How it was run: as §1

[7] = system: oilseed rape (Brassica napus); assay: Test C preemergence, plant response rating; details: Brassica napus, pre-emergence, Preemergence
How it was run: as §1

[8] = system: ragweed (common ragweed, Ambrosia elatior); assay: Test C preemergence, plant response rating; details: Ambrosia artemisiifolia, pre-emergence, Preemergence
How it was run: as §1

[9] = system: ryegrass, Italian (Italian ryegrass, Lolium multiflorum); assay: Test C preemergence, plant response rating; details: Lolium multiflorum, pre-emergence, Preemergence
How it was run: as §1

soybean (Glycine max) = assay: Test C preemergence, plant response rating; details: Glycine max, pre-emergence, Preemergence
How it was run: as §1

[10] = system: velvetleaf (Abutilon theophrasti); assay: Test C preemergence, plant response rating; details: Abutilon theophrasti, pre-emergence, Preemergence
How it was run: as §1

[11] = system: waterhemp (common waterhemp, Amaranthus rudis); assay: Test C preemergence, plant response rating; details: Amaranthus tuberculatus, pre-emergence, Preemergence
How it was run: as §1

[12] = system: wheat (winter wheat, Triticum aestivum); assay: Test C preemergence, plant response rating; details: Triticum aestivum, pre-emergence, Preemergence
How it was run: as §1

[13] = system: barnyardgrass (Echinochloa crus-galli); assay: Test C postemergence, plant response rating; details: Echinochloa crus-galli, post-emergence
How it was run: as §1

[14] = system: blackgrass (Alopecurus myosuroides); assay: Test C postemergence, plant response rating; details: Alopecurus myosuroides, post-emergence
How it was run: as §1

[15] = system: foxtail, giant (giant foxtail, Setaria faberii); assay: Test C postemergence, plant response rating; details: Setaria faberi, post-emergence
How it was run: as §1

[16] = system: morningglory (Ipomoea coccinea); assay: Test C postemergence, plant response rating; details: Ipomoea, post-emergence
How it was run: as §1

[17] = system: oilseed rape (Brassica napus); assay: Test C postemergence, plant response rating; details: Brassica napus, post-emergence
How it was run: as §1

[18] = system: velvetleaf (Abutilon theophrasti); assay: Test C postemergence, plant response rating; details: Abutilon theophrasti, post-emergence
How it was run: as §1

[19] = system: wheat (winter wheat, Triticum aestivum); assay: Test C postemergence, plant response rating; details: Triticum aestivum, post-emergence
How it was run: as §1

[20] = 62 g ai/ha, scale 0 to 100 (0 no effect, 100 complete control)
[21] = 125 g ai/ha, scale 0 to 100 (0 no effect, 100 complete control)

With `O=C(OCCC(F)(F)F)c1c(Cl)cccc1Oc1ncc(Cl)cn1` [Compound 15, 3,3,3-trifluoropropyl 2-chloro-6-[(5-chloro-2-pyrimidinyl)oxy]benzoate] the pest or weed control at 62 g/ha ([1]; 62 g ai/ha, scale of 0 to 100) was 50%, the pest or weed control at 125 g/ha ([1]; 125 g ai/ha, scale of 0 to 100) was 80% and the pest or weed control at 16 g/ha ([1]; 16 g ai/ha, scale 0 to 100) was 0%. It also gave a pest or weed control at 31 g/ha ([1]; 31 g ai/ha, scale 0 to 100) of 0%, a Corn plant response rating (crop injury, 0 = no effect, 100 = complete kill) at 62 g/ha (corn (Zea mays); 62 g ai/ha, scale of 0 to 100) of 10% and a Corn plant response rating (crop injury, 0 = no effect, 100 = complete kill) at 125 g/ha (corn (Zea mays); 125 g ai/ha, scale of 0 to 100) of 25%. For the same compound, the Corn plant response rating (crop injury, 0 = no effect, 100 = complete kill) at 16 g/ha (corn (Zea mays); 16 g ai/ha, scale 0 to 100) was 0%, the Corn plant response rating (crop injury, 0 = no effect, 100 = complete kill) at 31 g/ha (corn (Zea mays); 31 g ai/ha, scale 0 to 100) was 0% and the pest or weed control at 62 g/ha ([2]; 62 g ai/ha, scale of 0 to 100) was 100%. It also gave a pest or weed control at 125 g/ha ([2]; 125 g ai/ha, scale of 0 to 100) of 100%, a pest or weed control at 16 g/ha ([2]; 16 g ai/ha, scale 0 to 100) of 95% and a pest or weed control at 31 g/ha ([2]; 31 g ai/ha, scale 0 to 100) of 100%. It also gave a pest or weed control at 62 g/ha ([3]; 62 g ai/ha, scale of 0 to 100) of 100%, a pest or weed control at 125 g/ha ([3]; 125 g ai/ha, scale of 0 to 100) of 100% and a pest or weed control at 16 g/ha ([3]; 16 g ai/ha, scale 0 to 100) of 100%. It also gave a pest or weed control at 31 g/ha ([3]; 31 g ai/ha, scale 0 to 100) of 100%, a pest or weed control at 125 g/ha ([4]; 125 g ai/ha, scale of 0 to 100) of 95% and a pest or weed control at 16 g/ha ([4]; 16 g ai/ha, scale 0 to 100) of 60%. The pest or weed control at 31 g/ha ([4]; 31 g ai/ha, scale 0 to 100) was 70%, the pest or weed control at 62 g/ha ([4]; 62 g ai/ha, scale 0 to 100) was 85% and the pest or weed control at 125 g/ha ([5]; 125 g ai/ha, scale of 0 to 100) was 60%. The pest or weed control at 16 g/ha ([5]; 16 g ai/ha, scale 0 to 100) was 20%, the pest or weed control at 31 g/ha ([5]; 31 g ai/ha, scale 0 to 100) was 20% and the pest or weed control at 62 g/ha ([5]; 62 g ai/ha, scale 0 to 100) was 35%. For the same compound, the pest or weed control at 125 g/ha ([6]; 125 g ai/ha, scale of 0 to 100) was 50%, the pest or weed control at 16 g/ha ([6]; 16 g ai/ha, scale 0 to 100) was 0% and the pest or weed control at 31 g/ha ([6]; 31 g ai/ha, scale 0 to 100) was 0%. The pest or weed control at 62 g/ha ([6]; 62 g ai/ha, scale 0 to 100) was 5%, the plant injury at 125 g/ha ([7]; 125 g ai/ha, scale of 0 to 100) was 100% and the plant injury at 16 g/ha ([7]; 16 g ai/ha, scale 0 to 100) was 30%. For the same compound, the plant injury at 31 g/ha ([7]; 31 g ai/ha, scale 0 to 100) was 100%, the plant injury at 62 g/ha ([7]; 62 g ai/ha, scale 0 to 100) was 100% and the pest or weed control at 125 g/ha ([8]; 125 g ai/ha, scale of 0 to 100) was 20%. The pest or weed control at 16 g/ha ([8]; 16 g ai/ha, scale 0 to 100) was 10%, the pest or weed control at 31 g/ha ([8]; 31 g ai/ha, scale 0 to 100) was 10% and the pest or weed control at 62 g/ha ([8]; 62 g ai/ha, scale 0 to 100) was 30%. It also gave a pest or weed control at 125 g/ha ([9]; 125 g ai/ha, scale of 0 to 100) of 50%, a pest or weed control at 16 g/ha ([9]; 16 g ai/ha, scale 0 to 100) of 0% and a pest or weed control at 31 g/ha ([9]; 31 g ai/ha, scale 0 to 100) of 5%. For the same compound, the pest or weed control at 62 g/ha ([9]; 62 g ai/ha, scale 0 to 100) was 15%, the plant injury at 125 g/ha (soybean (Glycine max); 125 g ai/ha, scale of 0 to 100) was 55% and the plant injury at 16 g/ha (soybean (Glycine max); 16 g ai/ha, scale 0 to 100) was 0%. It also gave a plant injury at 31 g/ha (soybean (Glycine max); 31 g ai/ha, scale 0 to 100) of 10%, a plant injury at 62 g/ha (soybean (Glycine max); 62 g ai/ha, scale 0 to 100) of 40% and a pest or weed control at 125 g/ha ([10]; 125 g ai/ha, scale of 0 to 100) of 100%. It also gave a pest or weed control at 16 g/ha ([10]; 16 g ai/ha, scale 0 to 100) of 60%, a pest or weed control at 31 g/ha ([10]; 31 g ai/ha, scale 0 to 100) of 85% and a pest or weed control at 62 g/ha ([10]; 62 g ai/ha, scale 0 to 100) of 100%. For the same compound, the pest or weed control at 125 g/ha ([11]; 125 g ai/ha, scale of 0 to 100) was 100%, the pest or weed control at 16 g/ha ([11]; 16 g ai/ha, scale 0 to 100) was 90% and the pest or weed control at 31 g/ha ([11]; 31 g ai/ha, scale 0 to 100) was 100%. For the same compound, the pest or weed control at 62 g/ha ([11]; 62 g ai/ha, scale 0 to 100) was 100%, the plant injury at 125 g/ha ([12]; 125 g ai/ha, scale of 0 to 100) was 5% and the plant injury at 16 g/ha ([12]; 16 g ai/ha, scale 0 to 100) was 0%. For the same compound, the plant injury at 31 g/ha ([12]; 31 g ai/ha, scale 0 to 100) was 0%, the plant injury at 62 g/ha ([12]; 62 g ai/ha, scale 0 to 100) was 0% and the pest or weed control at 16 g/ha ([13]; 16 g ai/ha, scale 0 to 100) was 20%. The pest or weed control at 31 g/ha ([13]; 31 g ai/ha, scale 0 to 100) was 15%, the pest or weed control at 62 g/ha [13, 20] was 20% and the pest or weed control at 125 g/ha [13, 21] was 20%. The pest or weed control at 16 g/ha ([14]; 16 g ai/ha, scale 0 to 100) was 0%, the pest or weed control at 31 g/ha ([14]; 31 g ai/ha, scale 0 to 100) was 5% and the pest or weed control at 62 g/ha [14, 20] was 10%. For the same compound, the pest or weed control at 125 g/ha [14, 21] was 10%, the pest or weed control at 16 g/ha ([15]; 16 g ai/ha, scale 0 to 100) was 25% and the pest or weed control at 31 g/ha ([15]; 31 g ai/ha, scale 0 to 100) was 30%. For the same compound, the pest or weed control at 62 g/ha [15, 20] was 20%, the pest or weed control at 125 g/ha [15, 21] was 35% and the pest or weed control at 16 g/ha ([16]; 16 g ai/ha, scale 0 to 100) was 65%. For the same compound, the pest or weed control at 31 g/ha ([16]; 31 g ai/ha, scale 0 to 100) was 75%, the pest or weed control at 62 g/ha [16, 20] was 85% and the pest or weed control at 125 g/ha [16, 21] was 90%. It also gave a plant injury at 16 g/ha ([17]; 16 g ai/ha, scale 0 to 100) of 45%, a plant injury at 31 g/ha ([17]; 31 g ai/ha, scale 0 to 100) of 95% and a plant injury at 62 g/ha [17, 20] of 100%. For the same compound, the plant injury at 125 g/ha [17, 21] was 0%, the pest or weed control at 16 g/ha ([18]; 16 g ai/ha, scale 0 to 100) was 50% and the pest or weed control at 31 g/ha ([18]; 31 g ai/ha, scale 0 to 100) was 50%. It also gave a pest or weed control at 62 g/ha ([18]; 62 g ai/ha, scale 0 to 100 (0 no effect, 100 complete control), read-out: Velvetleaf plant response rating) of 60%, a pest or weed control at 125 g/ha [18, 21] of 85% and a plant injury at 16 g/ha ([19]; 16 g ai/ha, scale 0 to 100) of 0%. For the same compound, the plant injury at 31 g/ha ([19]; 31 g ai/ha, scale 0 to 100) was 0%, the plant injury at 62 g/ha ([19]; 62 g ai/ha, scale 0 to 100 (0 no effect, 100 complete control), read-out: Wheat plant response rating) was 0% and the plant injury at 125 g/ha [19, 21] was 0%.
